Laboratory results: patent US20230303604A1, “METALLIC TRANS-(N-HETEROCYCLIC CARBENE)-AMINE-PLATINUM COMPLEXES AND USES THEREOF FOR TREATING CANCER” (INSTITUT CURIE, priority 2020, published 2023)

What was measured:
Format in all cases: cell-based
[1] = system: H1299 cell lines; experiment: Radiosensitization assay on H1299; settings: H1299, 1 μM complex, 1 day pretreatment, D10 six days post-irradiation
Protocol: (§1) For one day or 10 min pretreatment, cells were seeded at a number allowing 5 doubling populations growth without reaching confluence in the untreated samples. They were then pretreated during the time indicated at the indicated NHC-Pt concentrations, irradiated at 1, 2, 3 and 4 Gy for A2780 cell lines and 2. 4. 6 and 8 Gy for H1299 and allow growing until 6 days. IC5 cells were irradiated at 1, 2, 3, 4 and 5 Gy, CC11^+ were irradiated at 2, 3, 4, 5 and 6 Gy and allow growing until 7 days, CRL1550 were irradiated at 2, 4, 6 and 8 Gy and allow growing until 5 days. CRL79200 were irradiated at 1, 2, 3 and 4 Gy and allow growing until 15 days. For 4 days pretreatment, cells were seeding in the conditions of cell cytotoxicity determination, trypsinised, seeded at a number allowing 5 doubling population growth without reaching confluence in the untreated samples and treated one day before irradiation. Irradiation is using GSR D1 irradiator (gamma-ray, 662 keV). The cells were left to grow for 6 days to allow at least 5 population doublings. Cell count of each well is taken and a graph is plotted with the percentage survival of each treatment of cells with its control (0 Gy). […]
(§2) All the complexes were first evaluated for their radiosensitizing properties on A2780 and H1299 cell lines. […] The D10 doses were evaluated as the doses allowing 10% survival six days post-irradiation. […]

[2] = system: A2780 cell lines; experiment: Radiosensitization assay on A2780; settings: A2780, 1 μM complex, 1 day pretreatment, D10 six days post-irradiation
Protocol: as §1, §2

[3] = system: A2780cis (A2780/DDP) cells; experiment: Cell proliferation evaluation on cisplatin-resistant A2780cis; settings: for ability to counteract the cisplatin resistance: A780cis cell line
Protocol: (§3) Cell culture. The A2780 ovarian carcinoma cell lines were purchased from ECACC (Salisbury, UK) and were grown in complete RPMI medium supplemented with 10% fetal calf serum, in the presence of penicillin, streptomycin. The resistance of A2780/DDP cells to cisplatin was maintained by monthly treatment with 1 μM cisplatin for 4 days. H1299 Non Small Cell Lung Carcinoma (ATCC® CRL-5803™) and were grown in RPMI medium supplemented with 10% fetal calf serum, 1% HEPES, 1% Sodium Pyruvate in the presence of penicillin and streptomycin. In addition, four cervical cancerous cell lines, already resistant to some conventional chemotherapy (Gemcitabin, methothrexate, vinorelbin and/or cisplatin) were chosen: IC5 (from Institut Curie), CRL1550 (ATCC® CRL1550™), CC11^+ (Cellosaurus CVCL_DF82) and CRL7920 (ATCC® CRL7920™). They were grown in complete RPMI medium supplemented with 10% fetal calf serum, in the presence of penicillin, streptomycin.
Cell proliferation evaluation. Cells were treated with various concentrations of NHC-Pt, at 37° C. under humidity and 5% CO2 conditions for 96 h. Cellular growth was quantified using the Moxi Z Mini automated cell counter (Orflox technology). CellTiter Glo® Luminescent Cell Viability Assay following the kit instructions (Promega) was also used. But since doses that inhibit 50% of cell proliferation (IC50) not always correlated to the number of cells, as previously observed (Uehara, T., Mitsuhashi, A., Tsuruoka, N., and Shozu, M. (2015) Metformin potentiates the anticancer effects of cisplatin under normoxic conditions in vitro, Oncology reports 33, 744-750), cell counting was privileged. […]

[4] = system: A2780 cells; experiment: Immunofluorescence assay, DNA damage repair kinetics (γ-H2AX and 53BP1 foci); settings: A2780, 2 Gy, 2 h and 6 h post irradiation, 1 day pre-treatment
Protocol: Immunofluorescence Assays. A2780 cells were plated on coverslips in 6-well plates. After 1 day of incubation with the various NHC-Pt at their RS doses, cells were irradiated at 2 Gys, incubated the time indicated post-irradiation, washed with phosphate-buffered saline (PBS), then fixed 10 minutes in 4% formaldehyde. After a wash with PBS, cells were permeabilised 2 min using 0.5% Triton X-100 and is washed with PBS. The cells were incubated in blocking buffer (5% bovine serum albumin in PBS) for 30 min before being incubated for 1 h with the primary mouse monoclonal antibody against g-H2AX (milipore) or 53BP1. After three washes with PBS, the cells were incubated for an additional 1 h with the Alexa Fluor 488-conjugated secondary antibody (Alexa Fluor 488 goat anti-mouse IgG; Life Technologies). Nuclei were labeled using DAPI and the coverslides were mounted with Vectashield™. Acquisitions were performed on a3D-dev or 3D-SIM in the microscopy platform from Institut Curie. ImageJ software ([…]) was used to project the z-stacks and count the number of g-H2AX or 53BP1 spots as well as their intensity and size in nuclei. […]
The inventors analyzed, by immunofluorescence, the γ-H2AX and 53BP1 foci, γ-H2AX being a DNA damage sensor and 53BP1 being a DNA repair sensor at different time post-irradiation (0.5-24 h).

[5] = system: cervical cancerous cell lines (IC5, CC11^+, CRL1550, CRL7920); experiment: Cell proliferation evaluation, statements over the cervical cancerous cell lines; settings: three cervical cancerous cell lines
Protocol: as §3
(§4) Cell proliferation evaluation. Cells were treated with various concentrations of NHC-Pt, at 37° C. under humidity and 5% CO2 conditions for 96 h. Cellular growth was quantified using the Moxi Z Mini automated cell counter (Orflox technology). CellTiter Glo® Luminescent Cell Viability Assay following the kit instructions (Promega) was also used. […]

[6] = system: CC11^+ cervical cancerous cell line; experiment: Cell proliferation evaluation on CC11+; settings: 4 days treatment
Protocol: as §3, §4

[7] = system: IC5 cervical cancerous cell line; experiment: Cell proliferation evaluation on IC5; settings: IC5, 4 days treatment
Protocol: as §3, §4

[8] = system: CRL1550 cervical cancerous cell line; experiment: Cell proliferation evaluation on CRL1550; settings: CRL1550, 4 days treatment
Protocol: as §3, §4

[9] = system: A2780 ovarian carcinoma cell lines; experiment: Cell proliferation evaluation (cell counting) on A2780; settings: A2780, 4 days (96 h) treatment
Protocol: as §3, §4

Structure (SMILES): CN1C=CN(C)[CH]1[Pt]([I])([I])[NH]C1CCCCC1 [MS140, trans-Diiodo(N-cyclohexylamine)(1,3-dimethylimidazol-2-ylidene)platinum]
- radiosensitizing properties at 1 μM [1]: significant radiosensitizing properties
- radiosensitizing properties at 1 μM [2]: significant radiosensitizing properties

Structure (SMILES): CN1C=CN(C)[CH]1[Pt]([NH2])([I])[I] [MS113, trans-Diiodo(ammonia)(1,3-dimethylimidazol-2-ylidene)platinum]
- ability to counteract the cisplatin resistance [3]: it is not the case

Structure (SMILES): CN1C=CN(CCCCCCN2C=CN(C)[CH]2[Pt]([NH2])([I])[I])[CH]1[Pt]([NH2])([I])[I] (stereo not drawn) [C2, [1,1′-(hexane-1,6-diyl)bis(3-methylimidazol-2-ylidene)]bis[trans-diiodo(ammonia)platinum]]
- ability to counteract the cisplatin resistance [3]: able to counteract the cisplatin resistance
- radiosensitizing properties at 1 μM [1]: significant radiosensitizing properties
- radiosensitizing properties at 1 μM [2]: significant radiosensitizing properties
- DNA damage repair after irradiation (γ-H2AX foci) [4]: induced a delay in the DNA damage repair

Structure (SMILES): CN1C=CN(CCCCCCN2C=CN(C)[CH]2[Pt]([I])([I])[N]2CCOCC2)[CH]1[Pt]([I])([I])[N]1CCOCC1 (stereo not drawn) [C7, [1,1′-(hexane-1,6-diyl)bis(3-methylimidazol-2-ylidene)]bis[trans-diiodo(N-morpholine)platinum]]
- cytotoxic activity as compared to C2 [5]: improved cytotoxic activity

Structure (SMILES): N.N.[Cl][Pt][Cl] [Cisplatin, cisplatin]
- IC50 [6]: 0.006 µM
- IC50 ([3]; cisplatin-resistant cell line, 96 h, read-out: IC50 in A780cis cell line): 6 µM
- IC50 [7]: 0.49 ± 0.05 µM
- IC50 [8]: 0.39 ± 0.04 µM
- IC50 [9]: 0.3 µM

Structure (SMILES): OCCN1C=CN(CCCCCCN2C=CN(CCO)[CH]2[Pt]([I])([I])[NH]C2CCCCC2)[CH]1[Pt]([I])([I])[NH]C1CCCCC1 (stereo not drawn) [C9, {1,1′-(hexane-1,6-diyl)bis[3-(2-hydroxethyl)imidazol-2-ylidene]}bis{[trans-diiodo(N-cyclohexylamine)platinum]}]
- cytotoxic activity as compared to C2 [5]: improved cytotoxic activity
